This passage reports Triple point temperature results from the NIST ThermoML archive (doi:10.1016/j.tca.2017.12.013).

Structures are written as SMILES. ± gives the expanded uncertainty stated by the source.

Turning to `[Ag+].[Ag+].[S-2]` [silver sulfide], the Triple point temperature is, setting by setting: (Crystal 2, DSC) 858 ± 1 K; (Crystal 2, Volume change) 865 ± 10 K; (Crystal 3, DSC) 451 ± 1 K; (Crystal 3, Volume change) 456 ± 5 K.
